IC50 and inhibition data for 19 compounds are collected here from US10155727B2, “Pyrazoles” (Janssen Pharmaceuticals, Inc., priority 2014, dated 2018).

As a reminder, the IC50 is the concentration that inhibits the measured activity by half.

The structures appear in SMILES notation. Structures can show the parent of a compound that is named as a salt. Where two headings read alike, the source gives them in different places. Some results are limits rather than exact numbers.

Test [1] addresses human NR1/NR2B ion channels (Homo sapiens (Human), UniProt Q05586+Q13224). The experiment in a line: HNR2BC: calcium influx assay on cloned human NR1/NR2B ion channels expressed in HEK cells. In kind it is cell-based. The conditions noted are these: HEK cells with hNR1/NR2B, 100 μM glutamate + 100 μM glycine, 3 parameter plot. The protocol: HNR2BC: Effects of Test Articles on Cloned Human NR1/NR2B Ion Channels Expressed in Mammalian Cells
The ability of test compounds to act as an antagonist of NR1/NR2B was evaluated with a calcium influx assay (Calcium 5 Assay Kit, Molecular Devices).
For the antagonist assessment, NR1/NR2B was activated with the positive control agonist (Mg^2+-free HBPS+100 μM glutamic acid+100 μM glycine).
A HEK cell line, stable transfected with hNR1/NR2B was used. This tetracycline inducible cell line is transfected with GRIN1 (GeneBank accession number NM_007327.2) and GRIN2B (GeneBank accession number NM_000834.3.). The cells were cultured in cell culture flasks with DMEM/F12 supplemented with 10% FCS, 1% PenStrep and a selection of additional antibiotics.
Forty-Eight (48) hours before the assay the cells were plated into 96-well black well, flat clear bottom microtiter plates at a density of 50000 cells/well. Twenty-Four (24) hours later the receptor expression was induced by the addition of 1 μg/ml tetracycline in the presence of 2 mM ketamine and 200 μM 7-CKA. After 24 h of receptor induction the plates were used for the assay.
The medium was removed and the cells were loaded with 200 μl loading buffer (Molecular Devices) in Mg2+-free HBPS containing 100 μM 7-CKA at 37° C. for one (1) hour.
The test compounds were then solubilized in 100% DMSO and diluted to yield eight (8) different concentrations in 100% DMSO. A 96 well drug plate was prepared by diluting with water and glycine/glutamate to a 5-fold of final test concentration. Fluorescence intensity of the cells in the plate was measured in a FlexStation using an excitation wavelength of 485 nm and an emission wavelength of 525 nm. Twenty (20) seconds after starting the recordings the compounds together with the agonists glycine (100 μM) and glutamate (100 μM) were added into the wells and the fluorescence measured for ninety (90) seconds in summary.
The IC50 values provided in the paragraph below were determined using a 3 parameter plot.

The next test concerns the target rat NR1/NR2B receptor (Rattus norvegicus (Rat), UniProt P35439+Q00960). Nature of the test: NR2B binding assay: inhibition of specific [3H]-Ifenprodil binding to the rat NR1/NR2B receptor. The conditions noted are these: [3H]-Ifenprodil binding, rat brain membranes; for inhibition at 1 µM: 1 μM test compound, read-out: % INH @ 1 μM; for inhibition at 10 µM: 10 μM test compound, read-out: % INH @ 10 μM. The protocol: Biological Assays Inhibition of Specific Binding to the Rat NR1/NR2B Receptor
Male Wistar rats (180 to 200 g) were killed by suffocation in a CO2 chamber for two minutes. Whole brains without cerebellum were removed and dissected on ice, placed into closed vials and stored at −70° C.
Membrane fractions were prepared and tested using standard techniques. At the time of the assay, 1 g of the brains was placed into 25 ml of 50 mM Tris/10 mM EDTA buffer, pH 7.1, (25 vol. per g of original tissue) and homogenized for 30 sec at 20000 rpm with an Ultraturrax T25 (Jahnke & Kunkel, IKA-Labortechnik, Staufen, Germany).
The supernatant was discarded and the pellet was homogenized on ice for 30 sec at 20000 rpm with an Ultraturrax and again centrifuged at 48000 g for 30 minutes at 4° C. The resultant pellet was resuspended in 25 ml of 50 mM Tris/10 mM EDTA buffer, homogenized for 30 sec with an Ultraturrax, aliquoted, frozen at −70° C. and stored until use.
After thawing on the day of the assay, a 5 ml membrane aliquot was centrifuged at 48000 g for 30 min at 4° C. The pellet was resuspended in 5 ml of 5 mM Tris/1 mM EDTA buffer, pH 7.4, homogenized for 30 sec at 20000 rpm with an Ultraturrax and centrifuged at 48000 g for 30 min at 4° C. This was repeated twice. The final pellet was homogenized in 5 ml of 5 mM Tris/1 mM EDTA buffer at 4° C. with an Ultraturrax and used for the Ifenprodil-binding assay as described in the following.
Nonspecific binding was estimated in the presence of […] CP101.606. The samples were incubated for 60 min. at 4° C.
The incubation was terminated by filtration of the membrane preparations using Filtermat B (Pharmacia, Uppsala Sweden) and a Micro Cell Harvester (Skatron, Lier, Norway). The Filtermat B had been presoaked with 1% polyethylene imine and carefully washed with 50 mM Tris/HCl-buffer pH 7.7 after the filtration to separate free and bound radioactivity.
The optimal amount of membrane preparation in the assay was determined and optimized for each membrane preparation separately before the test.
For pipetting of the incubation mixture the robot Biomek2000 (Fa. Beckman) was used.
For determination of IC50 values the Hill-plot, 2-parameter-model was used.

The target of a further test is hERG receptor (Homo sapiens (Human), UniProt Q12809). Nature of the test: HERGBD: inhibition of specific [3H]-Dofetilide binding to the hERG receptor. The protocol: Inhibition of Specific Binding to the hERG—Receptor (HERGBD)
A HEK cell line with stable transfected human ERG receptor was used for the assay. The cells were grown adherently and maintained in DULBECCOS' MEM medium with 10% FBS, 1% non-essential amino acids, 1% Penicillin/Streptomycin and 400 μg/ml G418 (Calbiochem).
For binding assays and membrane preparations the cell culture medium was removed, cells were washed with PBS. Crude membranes for radioligand binding experiments were prepared by scraping the cells off the dishes in ice cold 20 mM HEPES/0.1 mM KCl/pH 7.2. The cell suspension was homogenized on ice (Ultra turrax, 3×20 sec.) and the homogenate was spun for 10 min (1° C., 1000 g, OPTIMA, SW28, 2800 U/min). The supernatant was than centrifuged for 40 min at 100000 g (1° C., OPTIMA, SW28, 23000 U/min). The membrane pellet was re-suspended in 20 mM HEPES/0.1 mM KCl pH 7.2, frozen and stored at −80° C.
After thawing on the day of the assay, the membrane suspension was diluted further with 20 mM HEPES/0.1 mM KCl/pH 7.2.
The incubation mixture of 200 μl contained 1.5 nmol/l 3H-Dofetilide, optimized amount of membrane preparation, 20 mM HEPES/0.1 mM KCl/(pH 7.2) and inhibitor in 1% DMSO. Nonspecific binding was estimated in the presence of […] Dofetilide. The samples were incubated for 90 min. at RT.
Binding was terminated by filtration of the incubated membrane preparations using Filtermat B (Pharmacia, Uppsala Sweden) and a Micro Cell Harvester (Skatron, Lier, Norway). The Filtermat B had been presoaked with 1% polyethylen imine and carefully washed with 0.05 M Tris/HCl-buffer pH=7.7 after the filtration to separate free and bound radioactivity. The filters were counted in a scintillation counter (Betaplate 1205, Berthold, Wildbad, Germany) in order to determine the specific binding of [^3H]-Dofetilide.
The optimal amount of membrane preparation in the assay was determined and optimized for each membrane preparation separately in front of using the membranes in compound testing.
For pipetting of the incubation mixture we routinely use the robot Biomek2000 (Fa. Beckman).
(The hERG channel carries a current that helps repolarise heart muscle cells.)

[2] abbreviates: [3H]-Dofetilide binding, membranes of HEK cells with human ERG receptor, read-out: IC50.

Sequence of human NR1/NR2B ion channels (Q13224 27-1484, other chains not shown): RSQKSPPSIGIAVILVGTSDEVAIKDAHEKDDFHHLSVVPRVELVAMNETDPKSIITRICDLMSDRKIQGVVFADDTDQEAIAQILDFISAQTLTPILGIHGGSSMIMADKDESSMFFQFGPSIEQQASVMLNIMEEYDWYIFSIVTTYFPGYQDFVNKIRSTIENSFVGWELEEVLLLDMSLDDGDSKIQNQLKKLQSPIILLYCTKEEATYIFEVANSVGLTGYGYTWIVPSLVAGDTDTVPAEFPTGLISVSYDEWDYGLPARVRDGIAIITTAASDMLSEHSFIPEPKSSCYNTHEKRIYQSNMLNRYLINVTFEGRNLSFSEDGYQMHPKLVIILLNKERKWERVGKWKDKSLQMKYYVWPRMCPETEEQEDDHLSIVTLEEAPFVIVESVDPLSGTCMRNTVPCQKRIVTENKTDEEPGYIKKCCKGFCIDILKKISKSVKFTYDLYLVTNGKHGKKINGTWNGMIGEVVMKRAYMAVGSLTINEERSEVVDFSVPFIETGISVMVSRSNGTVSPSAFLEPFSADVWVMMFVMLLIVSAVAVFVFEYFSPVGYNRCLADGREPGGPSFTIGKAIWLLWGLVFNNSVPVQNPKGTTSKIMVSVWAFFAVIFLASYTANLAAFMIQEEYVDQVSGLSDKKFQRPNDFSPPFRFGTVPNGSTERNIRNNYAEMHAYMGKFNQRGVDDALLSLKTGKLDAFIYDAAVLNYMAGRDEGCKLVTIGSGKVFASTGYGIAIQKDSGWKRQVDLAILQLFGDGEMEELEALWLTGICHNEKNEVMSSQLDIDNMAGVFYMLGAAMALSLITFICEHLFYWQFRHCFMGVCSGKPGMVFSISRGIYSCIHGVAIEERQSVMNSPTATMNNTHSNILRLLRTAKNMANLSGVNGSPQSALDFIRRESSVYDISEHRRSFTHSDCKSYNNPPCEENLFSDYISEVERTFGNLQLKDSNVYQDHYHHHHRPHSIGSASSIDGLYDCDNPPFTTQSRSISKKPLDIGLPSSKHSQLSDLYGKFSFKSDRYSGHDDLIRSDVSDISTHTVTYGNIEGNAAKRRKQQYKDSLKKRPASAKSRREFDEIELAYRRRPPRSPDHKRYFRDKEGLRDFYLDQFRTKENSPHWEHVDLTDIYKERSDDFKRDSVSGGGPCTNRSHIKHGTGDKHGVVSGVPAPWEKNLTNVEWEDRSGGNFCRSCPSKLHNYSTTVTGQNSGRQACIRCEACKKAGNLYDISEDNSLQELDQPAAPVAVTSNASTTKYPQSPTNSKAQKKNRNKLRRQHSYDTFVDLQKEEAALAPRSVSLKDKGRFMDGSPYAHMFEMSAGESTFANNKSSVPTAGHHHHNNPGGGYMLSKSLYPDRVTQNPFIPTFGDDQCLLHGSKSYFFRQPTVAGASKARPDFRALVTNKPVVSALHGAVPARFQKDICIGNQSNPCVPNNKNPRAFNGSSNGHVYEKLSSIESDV
Sequence of rat NR1/NR2B receptor (Q00960 27-1482, other chains not shown): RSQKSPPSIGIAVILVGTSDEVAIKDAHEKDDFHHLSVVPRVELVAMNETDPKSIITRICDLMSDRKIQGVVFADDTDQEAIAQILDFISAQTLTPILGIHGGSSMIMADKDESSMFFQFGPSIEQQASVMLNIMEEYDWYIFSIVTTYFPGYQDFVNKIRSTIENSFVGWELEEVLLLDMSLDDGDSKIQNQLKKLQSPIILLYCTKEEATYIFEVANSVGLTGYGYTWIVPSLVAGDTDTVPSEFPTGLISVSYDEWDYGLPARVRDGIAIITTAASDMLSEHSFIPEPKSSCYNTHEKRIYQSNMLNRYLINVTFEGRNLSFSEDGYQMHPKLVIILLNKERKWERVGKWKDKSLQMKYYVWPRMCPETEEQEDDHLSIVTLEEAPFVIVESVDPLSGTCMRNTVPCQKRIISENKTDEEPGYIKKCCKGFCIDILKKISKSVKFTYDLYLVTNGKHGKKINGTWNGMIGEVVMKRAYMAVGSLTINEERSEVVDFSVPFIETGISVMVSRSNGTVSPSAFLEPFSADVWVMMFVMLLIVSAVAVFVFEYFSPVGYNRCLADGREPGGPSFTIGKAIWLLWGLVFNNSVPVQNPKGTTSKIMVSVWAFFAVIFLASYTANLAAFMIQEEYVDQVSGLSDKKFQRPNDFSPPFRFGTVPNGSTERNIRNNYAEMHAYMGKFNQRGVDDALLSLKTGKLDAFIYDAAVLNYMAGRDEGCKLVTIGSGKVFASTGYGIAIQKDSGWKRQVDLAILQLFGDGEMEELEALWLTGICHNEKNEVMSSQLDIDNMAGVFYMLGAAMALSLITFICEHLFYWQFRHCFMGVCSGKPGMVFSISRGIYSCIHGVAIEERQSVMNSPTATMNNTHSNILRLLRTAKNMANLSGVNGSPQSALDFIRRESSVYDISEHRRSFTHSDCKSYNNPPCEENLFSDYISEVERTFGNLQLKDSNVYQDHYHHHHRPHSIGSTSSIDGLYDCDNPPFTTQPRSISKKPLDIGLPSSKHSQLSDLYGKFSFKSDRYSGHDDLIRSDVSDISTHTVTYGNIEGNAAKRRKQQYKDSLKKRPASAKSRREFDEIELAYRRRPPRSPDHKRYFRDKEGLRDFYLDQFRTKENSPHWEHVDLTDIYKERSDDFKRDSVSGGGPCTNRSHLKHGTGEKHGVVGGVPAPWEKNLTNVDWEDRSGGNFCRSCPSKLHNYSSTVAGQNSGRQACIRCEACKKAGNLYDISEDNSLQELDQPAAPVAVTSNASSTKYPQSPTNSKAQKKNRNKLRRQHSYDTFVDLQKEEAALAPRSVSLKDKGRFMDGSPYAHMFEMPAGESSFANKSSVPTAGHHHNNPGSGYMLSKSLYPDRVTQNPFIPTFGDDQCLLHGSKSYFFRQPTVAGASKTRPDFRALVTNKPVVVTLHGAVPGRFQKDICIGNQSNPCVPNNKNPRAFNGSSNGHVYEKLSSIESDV
Sequence of hERG receptor (Q12809 whole entry): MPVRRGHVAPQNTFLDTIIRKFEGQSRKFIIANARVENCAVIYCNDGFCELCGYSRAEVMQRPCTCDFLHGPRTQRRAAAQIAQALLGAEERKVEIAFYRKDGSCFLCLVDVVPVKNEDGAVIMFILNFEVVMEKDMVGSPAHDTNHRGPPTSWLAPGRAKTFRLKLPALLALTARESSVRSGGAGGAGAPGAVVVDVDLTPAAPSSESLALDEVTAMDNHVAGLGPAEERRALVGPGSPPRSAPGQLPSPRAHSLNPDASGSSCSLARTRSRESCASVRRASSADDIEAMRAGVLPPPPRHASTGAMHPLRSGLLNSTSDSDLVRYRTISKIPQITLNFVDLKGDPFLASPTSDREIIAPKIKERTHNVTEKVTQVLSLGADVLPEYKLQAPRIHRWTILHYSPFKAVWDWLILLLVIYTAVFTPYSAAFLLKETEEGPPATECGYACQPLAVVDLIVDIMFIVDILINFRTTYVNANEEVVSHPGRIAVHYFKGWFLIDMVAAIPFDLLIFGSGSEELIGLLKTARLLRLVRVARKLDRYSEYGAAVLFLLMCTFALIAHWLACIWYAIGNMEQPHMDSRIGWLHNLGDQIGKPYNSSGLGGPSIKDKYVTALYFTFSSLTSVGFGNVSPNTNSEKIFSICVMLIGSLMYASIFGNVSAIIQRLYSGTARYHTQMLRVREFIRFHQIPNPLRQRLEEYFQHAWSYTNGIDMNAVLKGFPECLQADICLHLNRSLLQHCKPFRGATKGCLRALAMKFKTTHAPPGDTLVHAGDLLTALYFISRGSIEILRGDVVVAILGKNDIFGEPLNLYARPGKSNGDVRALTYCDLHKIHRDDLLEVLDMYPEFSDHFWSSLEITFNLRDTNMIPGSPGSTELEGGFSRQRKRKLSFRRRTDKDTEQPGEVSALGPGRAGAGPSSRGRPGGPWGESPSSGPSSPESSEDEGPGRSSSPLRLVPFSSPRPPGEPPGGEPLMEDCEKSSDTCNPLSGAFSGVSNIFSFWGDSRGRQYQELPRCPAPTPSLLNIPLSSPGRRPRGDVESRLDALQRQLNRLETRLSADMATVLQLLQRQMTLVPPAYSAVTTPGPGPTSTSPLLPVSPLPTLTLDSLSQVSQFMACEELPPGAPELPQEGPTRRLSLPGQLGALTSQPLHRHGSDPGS

Turning to `FC(F)c1cc(-c2cnn(Cc3cc[nH]n3)c2)ccc1Cl` [Example 26, 4-[4-Chloro-3-(difluoromethyl)phenyl]-1-(1H-pyrazol-3-ylmethyl)pyrazole], the IC50 in test [1] amounted to 0.89 µM.

`CCc1c[nH]nc1Cn1cc(-c2ccc(F)c(C(F)F)c2)cn1` [Example 92, 3-[[4-[3-(difluoromethyl)-4-fluoro-phenyl]pyrazol-1-yl]methyl]-4-ethyl-1H-pyrazole]: the IC50 at rat NR1/NR2B receptor turned out to be 0.0712 µM; at hERG receptor (setting [2]), 27.4 µM; in test [1], 11.9 µM.

For the compound `CCc1cc(Cn2cc(-c3ccc(Cl)c(OC(F)F)c3)cn2)n[nH]1` [Example 14, 3-[[4-[4-Chloro-3-(difluoromethoxy)phenyl]pyrazol-1-yl]methyl]-5-ethyl-1H-pyrazole], the values for the half-maximal inhibitory concentration (IC50) (on rat NR1/NR2B receptor; at hERG receptor (setting [2]); in test [1]) were 0.0762 µM, 16.1 µM and > 10 µM, respectively.

`Cn1ccc(Cn2cc(-c3ccc(F)c(C(F)F)c3)cn2)n1` [Example 31, 3-[[4-[3-(difluoromethyl)-4-fluoro-phenyl]pyrazol-1-yl]methyl]-1-methyl-pyrazole Succinate]: the figures for the IC50 (on rat NR1/NR2B receptor; at hERG receptor; in test [1]) were 0.264 µM, 19.7 µM and 7.77 µM, respectively.

Consider `CCc1c[nH]nc1Cn1cc(-c2ccc(F)c(OC(F)F)c2)cn1` [Example 91, 3-[[4-[3-(difluoromethoxy)-4-fluoro-phenyl]pyrazol-1-yl]methyl]-4-ethyl-1H-pyrazole Succinate], for which the IC50 on rat NR1/NR2B receptor was found to be 0.0438 µM; at hERG receptor it was 48.9 µM; in test [1], 1.25 µM.

Regarding `Cn1cc(Cn2cc(-c3ccc(Cl)c(OC(F)F)c3)cn2)cn1` [Example 4, 4-[4-Chloro-3-(difluoromethoxy)phenyl]-1-[(1-methylpyrazol-4-yl)methyl]pyrazole], the IC50 in test [1] stood at 1.75 µM.

For the compound `CCc1[nH]ncc1Cn1cc(-c2ccc(Cl)c(OC(F)F)c2)cn1` [Example 17, 4-[4-Chloro-3-(difluoromethoxy)phenyl]-1-[(5-ethyl-1H-pyrazol-4-yl)methyl]pyrazole], in test [1], the IC50 amounted to 3.7 µM.

With `Cc1cc(Cn2cc(-c3ccc(Cl)c(Cl)c3)cn2)n(C)n1` [Example 64, 5-[[4-(3,4-dichlorophenyl)pyrazol-1-yl]methyl]-1,3-dimethyl-pyrazole], the IC50 at rat NR1/NR2B receptor was 1.1 µM; at hERG receptor, 14.4 µM.

Consider `CCn1cncc1Cn1cc(-c2ccc(Cl)cc2)cn1` [Example 98, 4-(4-chlorophenyl)-1-((1-ethyl-1H-imidazol-5-yl)methyl)-1H-pyrazole], for which the values for the IC50 on rat NR1/NR2B receptor and at hERG receptor were 1.06 µM and 3.55 µM, respectively.

`COc1cc(F)ccc1-c1cnn(Cc2ccn(C)n2)c1` [Example 67, 3-[[4-(4-fluoro-2-methoxy-phenyl)pyrazol-1-yl]methyl]-1-methyl-pyrazole Succinate]: at rat NR1/NR2B receptor, the inhibition at 1 µM is 15.1% and the inhibition at 10 µM amounted to 16%. Besides, the 50% inhibitory concentration (IC50) at hERG receptor (setting [2]) stood at 63.3 µM.

Turning to `Cc1cc(Cn2cc(-c3ccc(Cl)c(C(F)(F)F)c3)cn2)n(C)n1` [Example 29, 5-[[4-[4-chloro-3-(trifluoromethyl)phenyl]pyrazol-1-yl]methyl]-1,3-dimethyl-pyrazole Succinate], the IC50 on rat NR1/NR2B receptor was 2.54 µM; on hERG receptor it was 17.9 µM.

As to `Cn1nccc1Cn1cc(-c2ccccc2)cn1` [Example 87, 1-Methyl-5-[(4-phenylpyrazol-1-yl)methyl]pyrazole; succinic acid], at rat NR1/NR2B receptor, the inhibition at 1 µM is -3.3% and the inhibition at 10 µM is 28.8%. For the same compound, the half-inhibitory concentration (IC50) at hERG receptor (setting [2]) was > 100 µM.

Regarding `CCCc1cc(Cn2cc(-c3ccc(Cl)c(OC(F)F)c3)cn2)n[nH]1` [Example 15, 3-[[4-[4-Chloro-3-(difluoromethoxy)phenyl]pyrazol-1-yl]methyl]-5-propyl-1H-pyrazole], the IC50 worked out at 0.163 µM at rat NR1/NR2B receptor and 7.93 µM on hERG receptor (setting [2]).

In the case of `Cc1cc(Cn2cc(-c3ccc(Cl)c(F)c3)cn2)n(C)n1` [Example 60, 5-[[4-(4-chloro-3-fluoro-phenyl)pyrazol-1-yl]methyl]-1,3-dimethyl-pyrazole], the IC50 at rat NR1/NR2B receptor stood at 2.17 µM; at hERG receptor (setting [2]), 31.6 µM.

Consider `CCn1ccc(Cn2cc(-c3ccc(Cl)c(OC(F)F)c3)cn2)n1` [Example 8, 3-[[4-[4-Chloro-3-(difluoromethoxy)phenyl]pyrazol-1-yl]methyl]-1-ethyl-pyrazole], for which the half-inhibitory concentration (IC50) at rat NR1/NR2B receptor was found to be 0.281 µM; at hERG receptor it was 41 µM.

Turning to `Cn1ccc(Cn2cc(-c3ccc(Cl)c(Cl)c3)cn2)n1` [Example 63, 3-[[4-(3,4-dichlorophenyl)pyrazol-1-yl]methyl]-1-methyl-pyrazole], the figures for the half-inhibitory concentration (IC50) at rat NR1/NR2B receptor and at hERG receptor (setting [2]) were 0.612 µM and 10.8 µM, respectively.

As to `FC(F)Oc1cc(-c2cnn(Cc3cc[nH]n3)c2)ccc1Cl` [Example 6], in test [1], the 50% inhibitory concentration (IC50) amounted to 0.23 µM.

Consider `Cn1ccc(Cn2cc(-c3cccc(OC(F)(F)F)c3)cn2)n1` [Example 23, 1-Methyl-3-[[4-[3-(trifluoromethoxy)phenyl]pyrazol-1-yl]methyl]pyrazole Succinate], for which the half-maximal inhibitory concentration (IC50) at rat NR1/NR2B receptor turned out to be 1.59 µM; at hERG receptor, 9.24 µM.

Consider `CCc1[nH]ncc1Cn1cc(-c2ccc(F)c(OC(F)F)c2)cn1` [Example 20, 4-[3-(difluoromethoxy)-4-fluoro-phenyl]-1-[(5-ethyl-1H-pyrazol-4-yl)methyl]pyrazole Tartrate], for which the half-maximal inhibitory concentration (IC50) in test [1] is 5.97 µM.
